Test results as given in patent publication US7582618B2 (priority 2002, dated 2009).
Several values for one entry are separate records, joined by “and”; a condition that tells them apart may be missing. Identical values can stand only once. Entries after “also recorded” stand apart in the source; their conditions may differ. Like-named read-outs stand apart in the source and are kept apart here.

What was measured:
[1] = tested on: BVDV (strain NADL) in MDBK cells; assay: BVDV cell protection assay (CPA); type: cell-based; conditions: Bovine viral diarrhea virus isolates and strains
[2] = tested on: BVDV New York-1 ncp in MDBK cells; assay: Yield reduction assay; type: cell-based, bovine viral diarrhea virus
[3] = tested on: BVDV I-N-dlns ncp in MDBK cells; assay: microbe, parasite or virus in culture; type: cell-based; conditions: Bovine viral diarrhea virus isolates and strains, read-out: Antiviral Efficacy EC90
YFV = assay: microbe, parasite or virus in culture; type: cell-based; conditions: Yellow fever virus, read-out: YFV (Table 8b)
CVB-2 = assay: Antiviral test (Tables 8b, 8c); type: cell-based, Coxsackievirus B-2; conditions: Coxsackievirus
Sb-1 = assay: microbe, parasite or virus in culture; type: cell-based, poliovirus Sabin type-1; conditions: Enterovirus C
REO-1 = assay: Antiviral test (Tables 8b, 8c); type: cell-based, double-stranded RNA viruses
CVB-4 = assay: microbe, parasite or virus in culture; type: cell-based, Coxsackievirus B-4; conditions: Coxsackievirus, read-out: EC50 CVB-4
YFV (Vero) = assay: microbe, parasite or virus in culture; type: cell-based; conditions: Yellow fever virus
MCMV (MEF) = assay: organism not typed; type: cell-based
[4] = tested on: Parainfluenzatype 3 (MA-104); assay: organism not typed; type: cell-based; conditions: MA104
Punta Toro A (LLC-MK2) = assay: organism not typed; type: cell-based
Cytotoxicity (Table 10) [5] = type: cell-based; conditions: human, Daudi cells, EBV row
Yellow Fever virus = assay: microbe, parasite or virus in culture; type: cell-based; conditions: read-out: composite EC50 range, Yellow Fever virus
[6] = tested on: BVDV (strain I-N-dIns), noncytopathic; type: cell-based, bovine viral diarrhea virus
in vitro = conditions: rhesus monkey
Cytotoxicity assay [7] = conditions: human
Cytotoxicity assay [8] = conditions: mouse
Cytotoxicity (Table 10) [9] = conditions: dog, MDCK cells
Cytotoxicity (Table 10) [10] = conditions: human, A549 cells
Cytotoxicity (Table 10) [11] = conditions: human, KB cells
[12] = Human bone marrow clonogenic assay
[13] = Cytotoxicity testing by NIH program; conditions: human and other mammalian
[14] = Cytotoxicity (cell proliferation) assay; conditions: human, Huh7 hepatoma cells
[15] = Cytotoxicity (cell proliferation) assay; conditions: human
[16] = Cytotoxicity (cell proliferation) assay; conditions: hamster, BHK-21 kidney cells
Huh7 cells = assay: Mitochondria toxicity assay, lactic acid production; conditions: 10 μM, 4 days
[17] = Clinical pharmacokinetics of mCyd after oral val-mCyd; conditions: human, plasma, mCyd in plasma; for AUC(0-inf): AUC0-inf (Mean); for Cmax: Cmax (Mean); for Tmax: Tmax (Mean); for half-life: t1/2 (Mean)
[18] = Cytotoxicity on uninfected cells in parallel to the CPA; conditions: bovine, uninfected MDBK kidney cells
HepG2 cells = assay: Transmission electron microscopy of mitochondrial ultrastructure; conditions: 10 μM, 14 days
[19] = 50 mg, val-mCyd 50 mg PO, Day 1
[20] = 50 mg, val-mCyd 50 mg PO, Day 15
[21] = 100 mg, val-mCyd 100 mg PO, Day 1
[22] = 100 mg, val-mCyd 100 mg PO, Day 15

## CC1(O)C(O)C(CO)OC1n1ccc(N)nc1=O (stereo not shown) [mCyd, 4-Amino-1-(3,4-dihydroxy-5-hydroxymethyl-3-methyl-tetrahydro-furan-2-yl)-1H-pyrimidine-2-one]
[1]; 96 h, BVDV NADL cp, de novo infection, 4 days
  EC50: 0.67 ± 0.22 µM
[1]; BVDV MOI 0.16
  EC50: ~2.2 µM
[2]
  Antiviral Efficacy EC4 log: 6.03 ± 1.41 μM
[2]; Bovine viral diarrhea virus isolates and strains
  EC50: 0.3 ± 0.07 µM
[2]; Bovine viral diarrhea virus isolates and strains, read-out: Antiviral Efficacy EC90
  EC90: 0.87 ± 0.18 µM
[3]
  EC90: 1.49 µM
YFV
  EC50: 54 µM
CVB-2; Table 8c, read-out: EC50 CVB-2
  EC50: 11 µM
CVB-2; read-out: CVB-2 (Table 8b)
  EC50: 12 µM
Sb-1; read-out: EC50 Sb-1
  EC50: 6 µM
Sb-1; read-out: Sb-1 (Table 8b)
  EC50: 11.5 µM
REO-1
  EC50: 13 µM
CVB-4
  EC50: 13 µM
YFV (Vero)
  EC50: 9 to 30 µM
MCMV (MEF)
  EC50: > 0.8 µM
[4]
  EC50: > 200 µM
Punta Toro A (LLC-MK2)
  EC50: > 200 µM
Cytotoxicity (Table 10) [5]
  CC50: > 50 µg/mL
Yellow Fever virus
  EC50: 9 to 80 µM
[6]; 8 μM, after two passages, re-emerged by passage 6
  virus detection under prolonged treatment: no longer detectable
[6]; 16 μM, from more than 6 logs of virus per ml, within two cell passages
  virus production: undetectable levels
In vitro
  CC50: > 200 µM
Cytotoxicity assay [7]; CC50, HFF, HCMV row
  CC50: 67 to 73 µg/mL
Cytotoxicity assay [7]; CC50, HFF, HSV-1 row
  CC50: > 100 µg/mL
Cytotoxicity assay [7]; CC50, HFF, HSV-2 row
  CC50: > 100 µg/mL
Cytotoxicity assay [7]; CC50, HFF, VZV row
  CC50: 67.8 µg/mL
Cytotoxicity assay [7]; CC50, rapidly proliferating HFF
  CC50: 16.9 µM
Cytotoxicity assay [8]
  CC50: 2.4 µM
Cytotoxicity (Table 10) [9]; Influenza A/H1N1 row
  CC50: > 200 µM
Cytotoxicity (Table 10) [9]; Influenza A/H3N2 row
  CC50: 45 to 65 µM
Cytotoxicity (Table 10) [9]; Influenza B row
  CC50: 55 to 140 µM
Cytotoxicity (Table 10) [10]
  CC50: > 200 µM
Cytotoxicity (Table 10) [11]
  CC50: > 200 µM and 20 µg/mL to 30 µg/mL
[12]
  CC50: 14.1 ± 4.5 µM
[13]
  CC50: > 50 µM
[14]
  CC50 at 4 days: > 250 µM
[15]
  CC50: > 200 µM
[15]; HepG2 hepatoma cells on collagen-coated plates, CC50, HepG2 grown on collagen coated plates for 4 or 10 d
  CC50: ≥ 200 µM
[15]; HepG2 hepatoma cells, CC50, HepG2, rapid cell division
  CC50 at 4 days: 161 µM
[16]
  CC50 at 4 days: 132 µM
Huh7 cells
  L-Lactate (% of Control), Huh7 Cells: 98.0 ± 12.3 % of Control
[17]; [19]
  AUC(0-inf): 3120 ng·h/mL
  Cmax: 428 ng/mL
  Tmax: 2.5 h
  half-life: 4.1 h
[17]; [20]
  AUC(0-inf): 3170 ng·h/mL
  Cmax: 363 ng/mL
  Tmax: 2.2 h
  half-life: 4.6 h
[17]; [21]
  AUC(0-inf): 6900 ng·h/mL
  Cmax: 982 ng/mL
  Tmax: 2.6 h
  half-life: 4.4 h
[17]; [22]
  AUC(0-inf): 7670 ng·h/mL
  Cmax: 1050 ng/mL
  Tmax: 2 h
  half-life: 4.2 h
[18]
  CC50 at 4 days: 38 ± 9 µM
HepG2 cells
  Electron Microscopy, Lipid Droplet Form.: Negative
  Electron Microscopy, Mito. Morphol.: No changes in cell architecture, or in mitochondrial number or morphology; also recorded: Normal^d
  cells with 1 to 2 enlarged mitochondria out of an average of 25 per cell: 17%
